# Reference: US6627732B1, “Glutathione derivatives and their dosage forms” (Teijin Limited, priority 1998, dated 2003)
# What was measured:
# [1] = Dialysis of fat emulsion in aqueous glycerin, content of glutathione derivative retained (Example 23); format: physicochemical; settings: 2 mg/ml fat emulsion, dialysis 2 days at room temperature in 2.3 (w/v)% glycerin, 1.2 μm filter; uncorrected for volume increase
# Procedure: The glutathione derivative combined with a fat emulsion was dialyzed in an aqueous solution of glycerin to compare changes in the content of the glutathione derivative in the fat emulsion.
# Thereupon, the concentration of the glutathione derivative in the fat emulsion was adjusted to 2 mg/ml.
# (2) These fat emulsions (14 ml) were dialyzed in 1 liter of a 2.3 (w/v)% aqueous solution of glycerin. Dialysis was carried out at room temperature for 2 days with one change of the aqueous glycerin solution during the dialysis. All the fat emulsions after dialysis were about 15.6 ml. They were filtered by a 1.2 μm filter and the content of the glutathione derivative was measured.
# [2] = Intravenous administration of high dosages, local reaction; format: in vivo; settings: high dosages administered intravenously
# HL-60 cells = experiment: HL-60 cell differentiation induction, NBT reducing activity, DMSO as solvent (Example 21); format: cell-based, human
# From the text: In a manner similar to that in Example 20, the in vitro activity of the glutathione derivatives of Examples 4, 5, and 8, and Comparative Example 3 were compared.
# (1) The differences from Example 20 were: First, since the glutathione derivatives of Examples and Comparative Examples used dimethyl sulfoxide (DMSO) as the solvent because of the solubility of the compounds, the system contained 0.1-0.3 (v/v)% DMSO instead of ethanol. […] This caused slight differences in the sensitivity in the test results of the glutathione derivative of Example 4. Furthermore, in Example 21, the differentiation induction on HL-60 cells into granulocytic cells in the coexistence of 9-cis-RA was only evaluated.
# normal healthy rats = experiment: Neutrophil counts and bone marrow cells in normal healthy rats (Example 28); format: in vivo, rat
# Procedure: The effects of increasing neutrophil counts of the compound of Example 4 in normal healthy rats were studied.
# (1) Male SD rats, 6-week old, purchased from Nippon SLC were used. The animal feed (MF, manufactured by Oriental Yeast Co., Ltd.) and drinking water (well water treated with 0.4±0.2 ppm hypochlorous acid) were given ad libitum during the period of the experiment. The animals were each housed in a hanging-type rat cage (manufactured by Nippon Cage K.K.) and kept at a temperature of 24±2° C. and a humidity of 55±5%.
# (2) The glutathione derivative of Example 4 combined with the fat emulsion at 10, 20, or 30 mg/kg-body weight/day, and the fat emulsion alone as the negative control were each repeatedly administered into the tail vein for 6 days from day 1 to 6 of the experiment. Dosage was 10 ml/kg-body weight/day. From day 1 to 10 of the experiment, blood was drawn everyday from the jugular vein and the EDTA-2K-treated blood was obtained. Then the blood was used to determine the neutrophil counts using a general chemistry test instrument (Technicon H-1E, manufactured by Bayer-Sankyo K.K.).
# Part of the negative control group on days 1, 7, and 10, and part of the Example 4—the fat emulsion 30 mg/kg-body weight/day administration group on days 3, 5, 7, and 10 of the experiment were bled to death from the abdominal aorta under anesthesia by the intraperitoneal administration of pentobarbital sodium. Then, the femoral bone marrow was harvested, smears were prepared therefrom using the wedge method, stained by the May-Giemsa stain, and examined under a microscope to determine the fractionation of nucleated bone marrow cells.
# IL-1β = experiment: Plasma level of IL-1β in normal healthy rats (ELISA); format: in vivo, rat; settings: fat emulsion 20 mg/kg-body weight/day, days 3, 5 and 7
# From the text: , plasma obtained form the EDTA-2K-treated blood on days 3, 5, and 7 of the experiment was used to determine plasma levels of interleukin 1β (hereinafter referred to as IL-1β) and tumor necrosis factor (hereinafter referred to as TNFα). For the determination, the rat IL-1β-ELISA system (manufactured by Amersham Pharmacia Biotek Co., Ltd.), the rat TNFα-ELISA system (manufactured by Amersham Pharmacia Biotek Co., Ltd.), and the BioRad microplate reader (MODEL550, Nippon BioRad laboratories, Co., Ltd.).
# [3] = Fat emulsion: particle distribution and content after 1.2 μm filtration (Examples 17, 18); format: physicochemical; settings: final concentration about 1 mg/ml
# Procedure: Preparation of the fat emulsion having as an active ingredient the glutathione derivative of Example 4 was carried out using a high-pressure injection type homogenizer.
# (1) The high-pressure injection type homogenizer used was Nanomizer LA from Nanomizer K.K. Purified yolk lecithin, purified soybean oil, and glycerin used were those that can be intravenously injected.
# (2) Purified yolk lecithin 6 g and purified soybean oil 55 g were mixed by a mixer while heating to homogeneity. To this was added 560 mg of the glutathione derivative of Example 4 and was further stirred to homogeneity. A suitable amount of glycerin and water for injection were added and rough-emulsified by a mixer, and pH was adjusted to 7.4 with an aqueous solution of sodium hydroxide. Water was further added to a total amount of 560 g, which was pure-emulsified using the Nanomizer LA at an emulsification pressure of 550 kgf/cm^2 by passing it through the emulsion part for 11 times. […]
# When the emulsion was crushed with tetrahydrofuran before and after filtration with a 1.2 μm filter and the content of the glutathione derivative of Example 4 was measured by HPLC, it was confirmed that the content of 90% or more of that before filtration was retained, homogeneity was good, and the glutathione derivative of Example 4 was stably mixed in the oil phase emulsion particles. […]
compound,measurement,setting,value
"CCOC(=O)[C@@H](N)CCC(=O)N[C@@H](CSCc1ccccc1)C(=O)N[C@@H](C(=O)OCC)c1ccccc1.Cl [Comparative Example 1, Glu(Cys(Bzl)-D-Phg-O(Et))-O(Et)hydrochloride, reference compound]","Content of the glutathione derivative in the fat emulsion after dialysis, of the initial feed",[1],14.0%
same,Local reaction at the site of administration,[2],can cause inflammation at the site of administration
"CCCCCCCCCCCCCCCCOC(=O)[C@@H](N)CCC(=O)N[C@@H](CSCc1ccccc1)C(=O)N[C@@H](C(=O)OCC)c1ccccc1.Cl [Example 4, Glu(Cys(Bzl)-D-Phg-OEt)-O(Hexadecyl)hydrochloride]",Differentiation induction activity compared with Comparative Example 3,"HL-60 cells; HL-60, coexistence of 9-cis-RA",activity higher than that of Comparative Example 3
same,Ratio of NBT reduction activity-positive cells,"HL-60 cells; compound 3 × 10^−6 M in DMSO, Solvent control (EtOH - 0.1%)",0.6%
same,Ratio of NBT reduction activity-positive cells,"HL-60 cells; compound 3 × 10^−6 M in DMSO, with 9-cis-RA (5 × 10^−9 M)",29.9%
same,Ratio of NBT reduction activity-positive cells,"HL-60 cells; compound 3 × 10^−7 M in DMSO, Solvent control (EtOH - 0.1%)",0.9%
same,Ratio of NBT reduction activity-positive cells,"HL-60 cells; compound 3 × 10^−7 M in DMSO, with 9-cis-RA (5 × 10^−9 M)",11.0%
same,Ratio of NBT reduction activity-positive cells,"HL-60 cells; compound 3 × 10^−8 M in DMSO, Solvent control (EtOH - 0.1%)",0.7%
same,Ratio of NBT reduction activity-positive cells,"HL-60 cells; compound 3 × 10^−8 M in DMSO, with 9-cis-RA (5 × 10^−9 M)",3.1%
same,Ratio of NBT reduction activity-positive cells,"HL-60 cells; compound 10^−6 M in DMSO, Solvent control (EtOH - 0.1%)",0.3%
same,Ratio of NBT reduction activity-positive cells,"HL-60 cells; compound 10^−6 M in DMSO, with 9-cis-RA (5 × 10^−9 M)",21.2%
same,Ratio of NBT reduction activity-positive cells,"HL-60 cells; compound 10^−7 M in DMSO, Solvent control (EtOH - 0.1%)",0.7%
same,Ratio of NBT reduction activity-positive cells,"HL-60 cells; compound 10^−7 M in DMSO, with 9-cis-RA (5 × 10^−9 M)",5.6%
same,Ratio of NBT reduction activity-positive cells,"HL-60 cells; compound 10^−8 M in DMSO, Solvent control (EtOH - 0.1%)",0.6%
same,Ratio of NBT reduction activity-positive cells,"HL-60 cells; compound 10^−8 M in DMSO, with 9-cis-RA (5 × 10^−9 M)",2.5%
same,Neutrophil counts in the peripheral blood relative to the negative control group,"normal healthy rats; fat emulsion 30 mg/kg-body weight/day iv, days 1-6, days 2 and 5-8, significance 5%-1%",statistically significant increase in the neutrophil counts
same,Neutrophilic myelocytic cells having the dividing ability in bone marrow,"normal healthy rats; fat emulsion 30 mg/kg-body weight/day, days 3 and 5",increased
same,Neutrophilic myelocytic cells having no dividing ability in bone marrow,"normal healthy rats; fat emulsion 30 mg/kg-body weight/day, maximum on day 7","increases were observed on day 5, 7, and 10"
same,Plasma level of IL-1β relative to the negative control group,IL-1β,No increases
same,Content after filtration with a 1.2 μm filter,[3]; alcohol solution mixed with water for injection,≤ 75%
same,Behaviour on mixing alcohol solution with water for injection,[3],immediately crystallized
